How the values were obtained:
P-glycoprotein (MDR1) = assay: MDCK-MDR1 Permeability Assay; type: in vitro ADME, canine; details: dog; for efflux ratio at 120 min: MDCK-MDR1, Papp(B-A)/Papp(A-B); for Papp A→B at 120 min: MDCK-MDR1, apical to basolateral; for Papp A→B at 120 min / Papp B→A at 120 min: 1-30 μM; for Papp B→A at 120 min: MDCK-MDR1, basolateral to apical
Procedure: MDCK-MDR1 cells originate from transfection of Madin Darby canine kidney (MDCK) cells with the MDR1 gene, the gene encoding for the efflux protein, P-glycoprotein. This cell line is ideal for identifying substrates of P-gp, with or without an inhibitor. The cells are seeded on a Multiscreen™ plate to form a confluent monolayer over 4 days prior to the experiment. On day 4, the test compound (1-30 μM concentration) is added to the apical side of the membrane and the transport of the compound across the monolayer is monitored over a 120 minutes time period. To study drug efflux, it is also necessary to investigate transport of the compound from the basolateral compartment to the apical compartment and calculate an efflux ratio.
(§1) The permeability coefficient (Papp) is calculated from the following equation: Papp=[(dQ/dt)/C0×A] where dQ/dt is the rate of permeation of the drug across the cells, C0 is the donor compartment concentration at time zero and A is the area of the cell monolayer.
An efflux ratio is calculated from the mean apical to basolateral (A-B) Papp data and basolateral to apical (B-A) Papp data. Efflux Ratio=Papp(B−A)/Papp(A−B)

A375 melanoma cells = assay: Antiproliferation assay in A375 cell line by CellTiter Glo; type: cell-based; details: Homo sapiens, A-375, 72 hours or 144 hours
Procedure: In vitro anti-proliferation study of test compounds in A375 cell line by CellTiter Glo. The cells were routinely maintained as a monolayer culture in corresponding culture medium, at 37° C. with 5% CO2 in air.
Harvest the exponential growth cells by trypsin-EDTA digestion. Re-suspend the cell pellet in fresh culture medium, and adjust the concentration to needed (the cell density per well was listed in following form). The cell viability is over 98% by Trypan blue staining. Inoculate cells into 96 wells plates according to the plate map (90 μL/well). Incubate the plates at 37° C. and 5% CO2 overnight. The next day, prepare the 10×compound containing medium according to the plate map. Transfer 10 μL of 10×compound containing medium into each well of the assay plates (the final DMSO concentration is 0.5%). Gently mix the medium and incubate at 37° C. and 5% CO2 for another 72 hours or 144 hours.
Prepare the reagent according to the manufacture's instruction. Add 50 μL CellTiter-Glo Reagent in each well. Mix contents for 2 minutes on an orbital shaker to induce cell lysis. Allow the plate to incubate at room temperature for 10 minutes to stabilize luminescent signal. Transfer 100 μL of reaction contents of each well from the clear plates into white walled/white opaque 96-well plates. Record the luminescence on Envision.
Using the luminescence measurements [time zero (T0), control growth (C), and test growth in the presence of drug at the six concentration levels (Ti)], the percentage growth is calculated at each of the drug concentrations levels.
Percentage growth inhibition (GI) is calculated as: GI (%)═[(Ti-T0)/(C-T0)]×100 for concentrations for which Ti>=T0, and GI (%)═[(Ti-T0)/T0]×100 for concentrations for which Ti<T0. Data were analyzed using the XLFit (Excel) tool, fitting to a 4-parameter equation to generate concentration response curves. Concentration of compound that inhibits 50% of control cell growth (GI50) was back-interpolated when y=50% of net growth of DMSO treated control wells using nonlinear regression with the equation: f(x) 205 [fit=(A+((B−A)/(1+((C/x)^))))], where A is the minimum response (Ymin), B is the maximum response (Ymax), C is the inflection point of the curve (Re GI50) and D is the Hill coefficient. Growth inhibition of 50% (GI50) was calculated at the 50% Growth inhibition on the curve. Index values were the sum of Inhibition rate (IR) at each tested compound concentration.

HT-29 colon cancer cells = assay: Antiproliferation assay in HT-29 cells by CellTiter Glo; type: cell-based; details: Homo sapiens, 72 hours or 144 hours
[1] = Caco-2 Permeability Assay; type: in vitro ADME; details: human; for efflux ratio at 120 min: Caco-2; for Papp A→B at 120 min: Caco-2, apical to basolateral; for Papp A→B at 120 min / Papp B→A at 120 min: 1-30 μM; for Papp B→A at 120 min: Caco-2, basolateral to apical
Procedure: Caco-2 cells are widely used as an in vitro assay to measure the permeability of a drug compound. The Caco-2 cell line is derived from a human colorectal carcinoma, and when cultured, the cells spontaneously differentiate into monolayers of polarized enterocytes. Caco-2 cells express P-glycoprotein and breast cancer resistance protein, two of the most relevant cell membrane active transporters that affect drug compound's permeability into cells and blood brain barrier.
The cells are seeded on Millipore Millicell plates and form a confluent monolayer over 20 days prior to the experiment. On day 20, the test compound (1-30 μM concentration) is added to the apical side of the membrane and the transport of the compound across the monolayer is monitored over a 120 minutes time period. To study drug efflux, it is also necessary to investigate transport of the compound from the basolateral compartment to the apical compartment.
as §1, with “monolayer. C0 is obtained from analysis of the dosing solution at the start experiment.” for “monolayer.”

[2] = Mouse Pharmacokinetics Study; type: in vivo; details: CD-1 mice
Excerpt: The pharmacokinetic properties of selected compounds were studied CD-1 mice via intravenous and oral administration by using a standard protocol. The test articles were formulated in 20% Hydroxypropyl-beta-cyclodextrin, either as a clear solution or fine suspension.

Row | efflux ratio at 120 min (P-glycoprotein (MDR1)) | Papp A→B at 120 min (P-glycoprotein (MDR1)) [×10⁻⁶ cm/s] | Papp B→A at 120 min (P-glycoprotein (MDR1)) [×10⁻⁶ cm/s] | GI50 (A375 melanoma cells) [nM] | GI50 (HT-29 colon cancer cells) [nM] | efflux ratio at 120 min [1] | Papp A→B at 120 min [1] [×10⁻⁶ cm/s] | Papp B→A at 120 min [1] [×10⁻⁶ cm/s] | F ([2]; PO 30 mg/kg) [%] | Vd ([2]; mouse, plasma, IV 2.5 mg/kg) [L/kg] | half-life ([2]; mouse, plasma, IV 2.5 mg/kg, 20% Hydroxypropyl-beta-cyclodextrin) [h] | clearance ([2]; mouse, plasma, IV 2.5 mg/kg, read-out: Clp) [mL/min/kg] | AUC ([2]; mouse, PO 30 mg/kg, plasma) [µg·h/mL] | Cmax ([2]; mouse, PO 30 mg/kg, plasma) [ng/mL] | Tmax ([2]; mouse, PO 30 mg/kg, plasma) [h] | SMILES
1 | 13.2 | 0.7 | 9.28 | < 100 | – | – | – | – | – | – | – | – | – | – | – | CCCS(=O)(=O)Nc1ccc(F)c(Oc2ccc3c(c2)C2=NCCCN2C=N3)c1C#N [Compound 17, N-(2-cyano-3-((3,4-dihydro-2H-pyrimido[1,2-c]quinazolin-10-yl)oxy)-4-fluorophenyl)propane-1-sulfonamide]
2 | – | – | – | < 100 | 100 to 1000 | 2.2 | 11.3 | 24.9 | – | – | – | – | – | – | – | CCCS(=O)(=O)Nc1cccc(Oc2ccc3c(c2)C2=NCCCN2C=N3)c1F [Compound 18, N-(3-((3,4-Dihydro-2H-pyrimido[1,2-c]quinazolin-10-yl)oxy)-2-fluorophenyl)propane-1-sulfonamide]
3 | 4.98 | 3.95 | 19.6 | < 100 | < 100 | – | – | – | – | – | – | – | – | – | – | CCCS(=O)(=O)Nc1nccc(Oc2ccc3c(c2)C2=NCCCN2C=N3)c1Cl [Compound 26, N-(3-Chloro-4-((3,4-dihydro-2H-pyrimido[1,2-c]quinazolin-10-yl)oxy)pyridin-2-yl)propane-1-sulfonamide]
4 | 1.22 | 34.6 | 42.3 | 100 to 1000 | – | – | – | – | – | – | – | – | – | – | – | CCCS(=O)(=O)Nc1cccc(Oc2ccc3c(c2)C2=NCCN2C=N3)c1C(F)(F)F [Compound 11, N-(3-((2,3-Dihydroimidazo[1,2-c]quinazolin-9-yl)oxy)-2-(trifluoromethyl)phenyl)propane-1-sulfonamide]
5 | 8.79 | 1.01 | 8.89 | < 100 | < 100 | – | – | – | – | – | – | – | – | – | – | CCCS(=O)(=O)Nc1cccc(Oc2ccc3c(c2)C2=NCCCN2C=N3)c1C#N [Compound 16, N-(2-cyano-3-((3,4-dihydro-2H-pyrimido[1,2-c]quinazolin-10-yl)oxy)phenyl)propane-1-sulfonamide]
6 | 6.53 | 3.65 | 23.8 | < 100 | < 100 | 2.92 | 6.42 | 18.7 | 112 ± 14 | 0.348 ± 0.037 | 1.47 ± 0.19 | 2.77 ± 0.52 | 207 ± 25.9 | 37300 ± 6240 | 1 | CCCS(=O)(=O)Nc1cccc(Oc2ccc3c(c2)C2=NCCN2C=N3)c1C#N [Compound 1, N-(2-Cyano-3-((2,3-dihydroimidazo[1,2-c]quinazolin-9-yl)oxy)phenyl)propane-1-sulfonamide]
7 | 2.63 | 19 | 50 | > 1000 | – | – | – | – | – | – | – | – | – | – | – | CCCS(=O)(=O)N(C)c1cccc(Oc2ccc3c(c2)C2=NCCN2C=N3)c1C#N [Compound 2, N-(2-Cyano-3-((2,3-dihydroimidazo[1,2-c]quinazolin-9-yl)oxy)phenyl)-N-methylpropane-1-sulfonamide]
8 | 2.73 | 3.03 | 8.29 | < 100 | – | 2.77 | 6.37 | 17.7 | – | – | – | – | – | – | – | N#Cc1c(NS(=O)(=O)c2ccccc2F)cccc1Oc1ccc2c(c1)C1=NCCN1C=N2 [Compound 14, N-(2-Cyano-3-((2,3-dihydroimidazo[1,2-c]quinazolin-9-yl)oxy)phenyl)-2-fluorobenzenesulfonamide]
9 | 4.3 | 6.6 | 28.4 | < 100 | – | – | – | – | – | – | – | – | – | – | – | CCCS(=O)(=O)Nc1cccc(Oc2ccc3c(c2)C2=NCCN2C=N3)c1[N+](=O)[O-] [Compound 12, N-(3-((2,3-Dihydroimidazo[1,2-c]quinazolin-9-yl)oxy)-2-nitrophenyl)propane-1-sulfonamide]
10 | 1.73 | 3.1 | 5.36 | 100 to 1000 | – | 2.94 | 5.08 | 14.9 | – | – | – | – | – | – | – | N#Cc1c(NS(=O)(=O)c2cccs2)cccc1Oc1ccc2c(c1)C1=NCCN1C=N2 [Compound 15, N-(2-Cyano-3-((2,3-dihydroimidazo[1,2-c]quinazolin-9-yl)oxy)phenyl)thiophene-2-sulfonamide]
11 | 1.82 | 1.21 | 2.19 | 100 to 1000 | – | – | – | – | – | – | – | – | – | – | – | CCCS(=O)(=O)Nc1c(F)ccc(Oc2ccc3c(c2)C2=NCCN2C=N3)c1C#N [Compound 5, N-(2-Cyano-3-((2,3-dihydroimidazo[1,2-c]quinazolin-9-yl)oxy)-6-fluorophenyl)propane-1-sulfonamide]
12 | – | – | – | > 1000 | > 1000 | – | – | – | – | – | – | – | – | – | – | CCCS(=O)(=O)Nc1nccc(Oc2ccc3c(c2)C2=NCCCN2C=N3)c1[N+](=O)[O-] [Compound 23, N-(4-((3,4-Dihydro-2H-pyrimido[1,2-c]quinazolin-10-yl)oxy)-3-nitropyridin-2-yl)propane-1-sulfonamide]
13 | 2.79 | 20.8 | 57.9 | < 100 | – | – | – | – | – | – | – | – | – | – | – | O=S(=O)(Nc1cccc(Oc2ccc3c(c2)C2=NCCN2C=N3)c1Cl)N1CC[C@@H](F)C1 [Compound 46, (R)—N-(2-Chloro-3-((2,3-dihydroimidazo[1,2-c]quinazolin-9-yl)oxy)phenyl)-3-fluoropyrrolidine-1-sulfonamide]
14 | 9.85 | 2.15 | 21.2 | < 100 | – | 1.48 | 9.24 | 13.7 | – | – | – | – | – | – | – | CCCS(=O)(=O)Nc1ccc(F)c(Oc2ccc3c(c2)C2=NCCN2C=N3)c1C#N [Compound 3, N-(2-Cyano-3-((2,3-dihydroimidazo[1,2-c]quinazolin-9-yl)oxy)-4-fluorophenyl)propane-1-sulfonamide]
15 | 2.47 | 17.6 | 43.4 | 100 to 1000 | – | – | – | – | – | – | – | – | – | – | – | CCCS(=O)(=O)Nc1cccc(Oc2ccc3c(c2)C2=NCCN2C=N3)c1F [Compound 9, N-(3-((2,3-Dihydroimidazo[1,2-c]quinazolin-9-yl)oxy)-2-fluorophenyl)propane-1-sulfonamide]

From US11254680B2, “Cyclic iminopyrimidine derivatives as kinase inhibitors” (ABM Therapeutics Corporation, priority 2017, dated 2022)
